The values that follow come from patent US11708348B2, “Protease inhibitors for treatment of coronavirus infections” (The Scripps Research Institute, priority 2021, dated 2023).

Bounds are passed on as bounds.

As a reminder, the EC50 is the concentration that produces a half-maximal response.

One assay concerns SARS-CoV-2 strain USA-WA1/2020. Kind of assay: microbe, parasite or virus in culture. To be noted: Severe acute respiratory syndrome coronavirus 2, HeLa-ACE2, 24 h, HeLa-ACE2 cells, SARS-CoV-2 infection, 24 h; cells given as a bound; read-out: EC50, uM (Hela). The class given is cell-based.
Turning to `CC(C)C[C@H](NC(=O)C(=O)Nc1ccccc1F)C(=O)N[C@@H](CC1CCCCC1)C(=O)COc1c(F)c(F)cc(F)c1F` [Compound 80, N1-((S)-1-(((S)-1-cyclohexyl-3-oxo-4-(2,3,5,6-tetrafluorophenoxy)butan-2-yl)amino)-4-methyl-1-oxopentan-2-yl)-N2-(2-fluorophenyl)oxalamide], the concentration giving a half-maximal response (EC50) is over 1 µM.
Same read-out and setting: as for `O=C(Nc1ccccc1F)C(=O)N1CCC[C@@H](C(=O)N[C@@H](C[C@@H]2CCNC2=O)C(=O)COc2c(F)c(F)cc(F)c2F)C1` [Compound 95, (R)-1-(2-((2-fluorophenyl)amino)-2-oxoacetyl)-N-((S)-3-oxo-1-((S)-2-oxopyrrolidin-3-yl)-4-(2,3,5,6-tetrafluorophenoxy)butan-2-yl)piperidine-3-carboxamide], the figure is over 1 µM.

Staying with this assay, now noted: Severe acute respiratory syndrome coronavirus 2, HeLa-ACE2, 24 h, HeLa-ACE2 cells, SARS-CoV-2 infection, 24 h; class symbols; read-out: EC50, uM (Hela).
In the case of `Cc1cc(F)ccc1NC(=O)C(=O)N[C@@H](CC(C)C)C(=O)N[C@@H](C[C@@H]1CCNC1=O)C(=O)COc1c(F)c(F)cc(F)c1F` [Compound 74, N1-(4-fluoro-2-methylphenyl)-N2-((S)-4-methyl-1-oxo-1-(((S)-3-oxo-1-((S)-2-oxopyrrolidin-3-yl)-4-(2,3,5,6-tetrafluorophenoxy)butan-2-yl)amino)pentan-2-yl)oxalamide], the EC50 is 0.2 to 0.5 µM.
The same measure, in the same setting: as for `CC(C)C[C@H](NC(=O)C(=O)Nc1ccccc1C#N)C(=O)N[C@@H](C[C@@H]1CCNC1=O)C(=O)COc1c(F)c(F)cc(F)c1F` [Compound 75, N1-(2-cyanophenyl)-N2-((S)-4-methyl-1-oxo-1-(((S)-3-oxo-1-((S)-2-oxopyrrolidin-3-yl)-4-(2,3,5,6-tetra-fluorophenoxy)butan-2-yl)amino)pentan-2-yl)oxalamide], the figure is 0.05 to 0.2 µM; as for `CC(C)C(F)(F)C(NC(=O)C(=O)Nc1ccccc1F)C(=O)N[C@@H](C[C@@H]1CCNC1=O)C(=O)COc1c(F)c(F)cc(F)c1F` (stereo partly drawn) [Compound 76, N1-(3,3-difluoro-4-methyl-1-oxo-1-(((S)-3-oxo-1-((S)-2-oxopyrrolidin-3-yl)-4-(2,3,5,6-tetrafluorophenoxy)butan-2-yl)amino)pentan-2-yl)-N2-(2-fluorophenyl)oxalamide], 0.05 to 0.2 µM.
On to `Cc1cc(Cl)ccc1NC(=O)C(=O)N[C@@H](CC(C)C)C(=O)N[C@@H](C[C@@H]1CCNC1=O)C(=O)COc1c(F)c(F)cc(F)c1F` [Compound 77, N1-(4-chloro-2-methylphenyl)-N2-((S)-4-methyl-1-oxo-1-(((S)-3-oxo-1-((S)-2-oxopyrrolidin-3-yl)-4-(2,3,5,6-tetrafluorophenoxy)butan-2-yl)amino)pentan-2-yl)oxalamide], for which the EC50 is under 0.05 µM.
Same read-out and setting: as for `CC(C)C[C@H](NC(=O)C(=O)Nc1ccc(F)cc1F)C(=O)N[C@@H](C[C@@H]1CCNC1=O)C(=O)COc1c(F)c(F)cc(F)c1F` [Compound 78, N1-(2,4-difluorophenyl)-N2-((S)-4-methyl-1-oxo-1-(((S)-3-oxo-1-((S)-2-oxopyrrolidin-3-yl)-4-(2,3,5,6-tetrafluorophenoxy)butan-2-yl)amino)pentan-2-yl)oxalamide], the figure is under 0.05 µM.
Regarding `COc1ccc(F)cc1NC(=O)C(=O)N[C@@H](CC(C)C)C(=O)N[C@@H](C[C@@H]1CCNC1=O)C(=O)COc1c(F)c(F)cc(F)c1F` [Compound 79, N1-(5-fluoro-2-methoxyphenyl)-N2-((S)-4-methyl-1-oxo-1-(((S)-3-oxo-1-((S)-2-oxopyrrolidin-3-yl)-4-(2,3,5,6-tetrafluorophenoxy)butan-2-yl)amino)pentan-2-yl)oxalamide], the EC50 lay within 0.05 to 0.2 µM.
Still for that read-out and setting: the figure for `CC(C)C[C@H](NC(=O)C(=O)NCC1CCCC1)C(=O)N[C@@H](C[C@@H]1CCNC1=O)C(=O)COc1c(F)c(F)cc(F)c1F` [Compound 81, N^1-(cyclopentylmethyl)-N^2—((S)-4-methyl-1-oxo-1-(((S)-3-oxo-1-((S)-2-oxopyrrolidin-3-yl)-4-(2,3,5,6-tetrafluorophenoxy)butan-2-yl)amino)pentan-2-yl)oxalamide] is 0.05 to 0.2 µM; for `Cc1cccc(F)c1NC(=O)C(=O)N[C@@H](CC(C)C)C(=O)N[C@@H](C[C@@H]1CCNC1=O)C(=O)COc1c(F)c(F)cc(F)c1F` [Compound 82, N1-(2-fluoro-6-methylphenyl)-N2-((S)-4-methyl-1-oxo-1-(((S)-3-oxo-1-((S)-2-oxopyrrolidin-3-yl)-4-(2,3,5,6-tetrafluorophenoxy)butan-2-yl)amino)pentan-2-yl)oxalamide] it is under 0.05 µM; for `Cc1ccc(F)cc1NC(=O)C(=O)N[C@@H](CC(C)C)C(=O)N[C@@H](C[C@@H]1CCNC1=O)C(=O)COc1c(F)c(F)cc(F)c1F` [Compound 83, Nl-(5-fluoro-2-methylphenyl)-N2-((S)-4-methyl-1-oxo-1-(((S)-3-oxo-1-((S)-2-oxopyrrolidin-3-yl)-4-(2,3,5,6-tetrafluorophenoxy)butan-2-yl)amino)pentan-2-yl)oxalamide] it is under 0.05 µM.
`CC(C)C[C@H](NC(=O)Nc1ccccc1F)C(=O)N[C@@H](C[C@@H]1CCNC1=O)C(=O)COc1c(F)c(F)cc(F)c1F` [Compound 84, (S)-2-(3-(2-fluorophenyl)ureido)-4-methyl-N-((S)-3-oxo-1-((S)-2-oxopyrrolidin-3-yl)-4-(2,3,5,6-tetrafluorophenoxy)butan-2-yl)pentanamide]: the EC50 lay in the range of 0.05 to 0.2 µM.
On the same count and under the same terms, as for `CC(C)C[C@H](NC(=O)C(=O)Nc1ccccc1C(C)C)C(=O)N[C@@H](C[C@@H]1CCNC1=O)C(=O)COc1c(F)c(F)cc(F)c1F` [Compound 86, Nl-(2-isopropylphenyl)-N2-((S)-4-methyl-1-oxo-1-(((S)-3-oxo-1-((S)-2-oxopyrrolidin-3-yl)-4-(2,3,5,6-tetrafluorophenoxy)butan-2-yl)amino)pentan-2-yl)oxalamide], the figure is under 0.05 µM.
On the same count and under the same terms, the figure for `CC(C)C[C@H](NC(=O)C(=O)Nc1cc(F)c(Br)c(F)c1)C(=O)N[C@@H](C[C@@H]1CCNC1=O)C(=O)COc1c(F)c(F)cc(F)c1F` [Compound 87, N1-(4-bromo-3,5-difluorophenyl)-N2-((S)-4-methyl-1-oxo-1-(((S)-3-oxo-1-((S)-2-oxopyrrolidin-3-yl)-4-(2,3,5,6-tetrafluorophenoxy)butan-2-yl)amino)pentan-2-yl)oxalamide] is 0.05 to 0.2 µM; for `O=C(Nc1ccccc1Cl)C(=O)N[C@@H](CC1CCC(F)(F)CC1)C(=O)N[C@@H](C[C@@H]1CCNC1=O)C(=O)COc1c(F)c(F)cc(F)c1F` [Compound 88, N1-(2-chlorophenyl)-N2-((S)-3-(4,4-difluorocyclohexyl)-1-oxo-1-(((S)-3-oxo-l-((S)-2-oxopyrrolidin-3-yl)-4-(2,3,5,6-tetrafluorophenoxy)butan-2-yl)amino)propan-2-yl)oxalamide] it is 0.05 to 0.2 µM; for `Cc1c(F)cccc1NC(=O)C(=O)N[C@@H](CC(C)C)C(=O)N[C@@H](C[C@@H]1CCNC1=O)C(=O)COc1c(F)c(F)cc(F)c1F` [Compound 89, N1-(3-fluoro-2-methylphenyl)-N2-((S)-4-methyl-1-oxo-1-(((S)-3-oxo-1-((S)-2-oxopyrrolidin-3-yl)-4-(2,3,5,6-tetrafluorophenoxy)butan-2-yl)amino)pentan-2-yl)oxalamide] it is under 0.05 µM.
Same read-out and setting: the figure for `CC(C)[C@H](NC(=O)C(=O)Nc1ccccc1F)C(=O)N[C@@H](C[C@@H]1CCNC1=O)C(=O)COc1c(F)c(F)cc(F)c1F` [Compound 90, N1-(2-fluorophenyl)-N2-((S)-3-methyl-1-oxo-1-(((S)-3-oxo-1-((S)-2-oxopyrrolidin-3-yl)-4-(2,3,5,6-tetrafluorophenoxy)butan-2-yl)amino)butan-2-yl)oxalamide] is 0.05 to 0.2 µM.
Take `O=C(Nc1ccccc1F)C(=O)N1CCC[C@H]1C(=O)N[C@@H](C[C@@H]1CCNC1=O)C(=O)COc1c(F)c(F)cc(F)c1F` [Compound 91, (S)-1-(2-((2-fluorophenyl)amino)-2-oxoacetyl)-N-((S)-3-oxo-1-((S)-2-oxopyrrolidin-3-yl)-4-(2,3,5,6-tetrafluorophenoxy)butan-2-yl)pyrrolidine-2-carboxamide]: the EC50 is 0.5 to 1 µM.
Turning to `O=C(Nc1ccccc1Cl)C(=O)N[C@@H](CC1CCCCC1)C(=O)N[C@@H](C[C@@H]1CCNC1=O)C(=O)COc1c(F)c(F)cc(F)c1F` [Compound 92, N1-(2-chlorophenyl)-N2-((S)-3-cyclohexyl-1-oxo-1-(((S)-3-oxo-1-((S)-2-oxopyrrolidin-3-yl)-4-(2,3,5,6-tetrafluorophenoxy)butan-2-yl)amino)propan-2-yl)oxalamide], the EC50 is under 0.05 µM.
Regarding `Cc1ccccc1NC(=O)C(=O)N[C@@H](CC1CCCCC1)C(=O)N[C@@H](C[C@@H]1CCNC1=O)C(=O)COc1c(F)c(F)cc(F)c1F` [Compound 93, N1-((S)-3-cyclohexyl-1-oxo-1-(((S)-3-oxo-1-((S)-2-oxopyrrolidin-3-yl)-4-(2,3,5,6-tetrafluorophenoxy)butan-2-yl)amino)propan-2-yl)-N2-(o-tolyl)oxalamide], the EC50 is under 0.05 µM.
The same measure, in the same setting: as for `CC(C)C[C@H](NC(=O)C(=O)NC1CCCC(F)(F)C1)C(=O)N[C@@H](C[C@@H]1CCNC1=O)C(=O)COc1c(F)c(F)cc(F)c1F` (stereo partly drawn) [Compound 94, Nl-(3,3-difluorocyclohexyl)-N2-((S)-4-methyl-1-oxo-1-(((S)-3-oxo-1-((S)-2-oxopyrrolidin-3-yl)-4-(2,3,5,6-tetrafluorophenoxy)butan-2-yl)amino)pentan-2-yl)oxalamide], the figure is 0.05 to 0.2 µM.

The assay is the same for the next values; noted with them: Severe acute respiratory syndrome coronavirus 2, HeLa-ACE2, 24 h; read-out: EC50, uM (Hela).
For the compound `CC(C)C[C@H](NC(=O)C(=O)Nc1ccc(Br)cc1F)C(=O)N[C@@H](C[C@@H]1CCNC1=O)C(=O)COc1c(F)c(F)cc(F)c1F` [Compound 96, N1-(4-bromo-2-fluorophenyl)-N2-((S)-4-methyl-1-oxo-1-(((S)-3-oxo-1-((S)-2-oxopyrrolidin-3-yl)-4-(2,3,5,6-tetrafluorophenoxy)butan-2-yl)amino)pentan-2-yl)oxalamide], the EC50 was 0.05 to 0.2 µM.
